The text below walks through data of patent US20220251126A1, “ANTICANCER AGENTS” (Yissum Research Development Company of the Hebrew …, priority 2019, published 2022).

In one data set the test system is A2780. As to the kind of experiment: MTT cytotoxicity, ovarian cancer cells A2780. The format is cell-based, human. How it is done: (§1) Cell cultures. The human ovarian A2780 and A2780cisR cancer were obtained from the American Type Culture Collection (ATCC, Rockville, Md.). Cell lines were maintained in the logarithmic phase at 37° C. under a 5% carbon dioxide atmosphere using RPMI 1640 medium containing 10% fetal calf serum, antibiotics (50 units per mL penicillin and 50 μg mL^−1 streptomycin) and 2 mM L-glutamine. MTT assay. The growth inhibitory effect towards human cell lines was evaluated by means of MTT (tetrazolium salt reduction) assay. Briefly, 3-8×10^3 cells per well, dependent upon the growth characteristics of the cell line, were seeded in 96-well microplates in growth medium (100 μL) and then incubated at 37° C. under a 5% carbon dioxide atmosphere. After 24 h, the medium was removed and replaced with a fresh one containing the compound to be studied at an appropriate concentration. Triplicate cultures were established for each treatment. After 72 h, each well was treated with 10 μL of a 5 mg mL^−1 MTT (3-(4,5-dimethylthiazol-2-yl)-2,5-diphenyltetrazoliumbromide) solution, and after additional 5 h, 100 μL of a sodium dodecyl sulfate (SDS) solution in 0.01 M HCl were added. Following overnight incubation, the inhibition of cell growth induced by the tested complexes was detected by measuring the absorbance of each well at 570 nm using a Bio-Rad 680 microplate reader (Bio-Rad, Hercules, CA).The mean absorbance for each drug dose was expressed as a percentage of the control untreated well absorbance and plotted vs. drug concentration.

Another data set has as its system A2780cisR. As to the kind of experiment: MTT cytotoxicity, cisplatin resistant line A2780cisR. The format is cell-based, human. How it is done:
as §1

The subject of a further data set is A375. The data set is described as follows: Cytotoxicity, A375 cells. In kind it is cell-based, human.
The subject of another data set is PC9. The data set is described as follows: Cytotoxicity, PC9 cells. The format is cell-based, human.
Data set [1] relates to Lewis lung carcinoma (LLC). The data set is described as follows: In vivo anticancer activity toward Lewis lung carcinoma (LLC) solid tumor. Conditions: for reduction of tumor growth / tumor mass compared to the control group: LLC model, day 15, rounded values of the text; for In vivo efficacy LLC Inhibition of tumor growth (%) / In vivo efficacy LLC tumor weight: Table 1, daily dose 20 (Gem-Carb complex, oral), 3 (cisplatin), 60 (gemcitabine); for In vivo efficacy LLC Inhibition of tumor growth (%): day 15, vs control, 60 + 3 (combination) mg kg^-1; for In vivo efficacy LLC tumor weight / Average tumor weight (mean ± SD, g) / Inhibition of tumor growth (%): day 15; for In vivo efficacy LLC tumor weight: 60 + 3 (combination) mg kg^-1, days 7-14; for Average tumor weight (mean ± SD, g) / Inhibition of tumor growth (%): Table 2, daily oral 20 mg kg^-1 Gem-Carb complex, daily i.p. 3 mg kg^-1 cisplatin, 60 mg kg^-1 Gem or combination, days 7-14. On the set-up: species or system C57BL mice. How it is done: In vivo anticancer activity toward Lewis lung carcinoma (LLC). All studies involving animal testing were carried out in accordance with ethical guidelines for animal research acknowledging the European Directive 2010/63/UE as to the animal welfare and protection and the related codes of practice. The mice were purchased from Charles River, housed in steel cages under controlled environmental conditions (constant temperature, humidity, and 12 h dark/light cycle), and alimented with commercial standard feed and tap water ad libitum. The LLC cell line was purchased from ECACC, United Kingdom. The LLC cell line was maintained in DMEM (Euroclone) supplemented with 10% heat inactivated fetal bovine serum (Euroclone), 10 mM L-glutamine, 100 U mL-1 penicillin, and 100 μg mL^−1 streptomycin in a 5% CO2 air incubator at 37° C. The LLC was implanted intramuscularly (i.m.) as a 2×10^6 cell inoculum into the right hind leg of 8 week old male and female C57BL mice (24±3 g body weight). […] Control mice received the vehicle (0.5% DMSO (v/v) and 99.5% of a saline solution (v/v)), whereas treated groups received daily doses of ctc-[Pt(NH3)2(Gem-Carb)(PhB)Cl2] […] At day 15, animals were sacrificed, the legs were amputated at the proximal end of the femur, and the inhibition of tumor growth was determined from the difference in the weights of the tumor-bearing leg and the healthy leg of the animals, expressed as a percentage referenced to the control animals Body weight was measured at day 0 and from day 7 onwards every 2 days and was taken as a parameter for systemic toxicity. All presented values are the means ±SD of no less than three measurements.
Moreover, it provides no information on the toxicity of the compounds. […] Seven days after tumor inoculation the tumor-bearing mice were randomized into vehicle control and treatment groups. Control mice received the vehicle (0.5% DMSO (v/v) and 99.5% of a saline solution (v/v)), whereas treated groups received daily doses of ctc-[Pt(NH3)2(Gem-Carb)(PhB)Cl2] […] As an estimation of the adverse side effects, changes in the body weights were monitored every two days.

Details of data set [2]: species or system C57BL mice. Conditions: mouse, in vivo. How it is done:
In vivo anticancer activity toward Lewis lung carcinoma (LLC). All studies involving animal testing were carried out in accordance with ethical guidelines for animal research acknowledging the European Directive 2010/63/UE as to the animal welfare and protection and the related codes of practice. The mice were purchased from Charles River, housed in steel cages under controlled environmental conditions (constant temperature, humidity, and 12 h dark/light cycle), and alimented with commercial standard feed and tap water ad libitum. The LLC cell line was purchased from ECACC, United Kingdom. […] At day 15, animals were sacrificed, the legs were amputated at the proximal end of the femur, and the inhibition of tumor growth was determined from the difference in the weights of the tumor-bearing leg and the healthy leg of the animals, expressed as a percentage referenced to the control animals Body weight was measured at day 0 and from day 7 onwards every 2 days and was taken as a parameter for systemic toxicity. […]
Moreover, it provides no information on the toxicity of the compounds. […] As an estimation of the adverse side effects, changes in the body weights were monitored every two days.

The nature of a further data set: physchem. In kind it is physicochemical. Here is the method: ctc-[Pt(NH3)2(Tax-Carb)(OH)Cl2] (3 mg, 0.0025 mmol) was dissolve in 750 μL of DMSO-d6 and mixed with ascorbic acid (2.2 mg, 0.0125 mmol). The ^1H NMR spectra were recorded every 6 min at 37° C.
We incubated ctc-[Pt(NH3)2(Tax-Carb)(OH)Cl2] with 5 eq of ascorbate and the reduction was followed by ^1H NMR. The NH proton in ctc-[Pt(NH3)2(Tax-Carb)(OH)Cl2] resonates at 9.2 ppm and in free taxol at ˜8.85 ppm. […] Similar results were obtained for the reduction of ctc-[Pt(NH3)2(EM-Carb)(OAc)Cl2] (FIG. 5A).

The mark [3] stands for this setting: Homo sapiens, A2780, Table 1, 72 h incubation, MTT, read-out: In vitro IC50 (μM) Cancer cell lines A2780.
Setting [4] is: Homo sapiens, A2780cisR, Table 1, 72 h incubation, MTT, read-out: In vitro IC50 (μM) Cancer cell lines A2780cisR.

Structures are written as SMILES. Read-outs that look alike come from different tables or passages of the source.

With `COc1ccc(/C=C\c2cc(OC)c(OC)c(OC)c2)cc1O` [CA4, combretastatin-A4], the IC50 was found to be 2.12 nM in the data set with A2780 (Table 3, unit nM, read-out: Cytotoxicity data A2780 mean); 2.63 nM in the data set on A2780cisR (Table 3, unit nM, read-out: Cytotoxicity data A2780 res mean); 1.63 nM in the data set with A375 (Table 3, unit nM, read-out: Cytotoxicity data A375 mean); 4.87 nM with PC9 (Table 3, unit nM, read-out: Cytotoxicity data PC9 mean).
Consider `N.N.[Cl][Pt][Cl]` [Cisplatin, cisplatin], for which, in data set [1], the “reduction of tumor growth / tumor mass compared to the control group” value is listed as around 90%; the “In vivo efficacy LLC Inhibition of tumor growth (%)” value turned out to be 90.3%; the “In vivo efficacy LLC tumor weight” value was 0.040 ± 0.01 g; the “Average tumor weight (mean ± SD, g)” value amounted to 0.040 ± 0.01 g. Further, the “Inhibition of tumor growth (%)” value in data set [1] was 90.3%.
Take `Nc1ccn([C@@H]2O[C@H](CO)[C@@H](O)C2(F)F)c(=O)n1` [Gemcitabine, gemcitabine]: the IC50 in the data set on A2780 (setting [3]) came to 2 ± 1 nM. Further, the IC50 in the data set with A2780cisR (setting [4]) worked out at 5 ± 1 nM. In addition, in data set [1], the “reduction of tumor growth / tumor mass compared to the control group” value is given as “about 80%”; the “In vivo efficacy LLC Inhibition of tumor growth (%)” value came out at 80.5%; the “In vivo efficacy LLC tumor weight” value is given as 0.08 ± 0.2 g; the “Average tumor weight (mean ± SD, g)” value is given as 0.080 ± 0.2 g. The “Inhibition of tumor growth (%)” value in data set [1] is 80.5%. The body weight loss in data set [2] is around 20%.
With `N.N.[Cl-].[Cl-].[OH-].[OH-].[Pt+4]` [Oxoplatin, oxoplatin], the IC50 came to 450 nM in the data set on A2780 (Table 3, unit μM, read-out: Cytotoxicity data A2780 mean); 1170 nM with A2780cisR (Table 3, unit μM, read-out: Cytotoxicity data A2780 res mean); 2210 nM in the data set with A375 (Table 3, unit μM, read-out: Cytotoxicity data A375 mean); 3990 nM with PC9 (Table 3, unit μM, read-out: Cytotoxicity data PC9 mean).
Regarding `CC(=O)O[C@H]1C(=O)[C@@]2(C)[C@H]([C@H](OC(=O)c3ccccc3)[C@]3(O)C[C@H](OC(=O)[C@H](O)[C@@H](NC(=O)c4ccccc4)c4ccccc4)C(C)=C1C3(C)C)[C@]1(OC(C)=O)CO[C@@H]1C[C@@H]2O` [Taxol, Paclitaxel], the IC50 with A2780 (setting [3]) came out at 2.2 ± 1 nM; with A2780 (Homo sapiens, A2780, Table 4, cells in nM, read-out: Cytotoxicity data A2780), 1.05 nM; in the data set on A2780cisR (setting [4]), 3 ± 0.06 nM; in the data set on A2780cisR (Homo sapiens, A2780cisR, Table 4, cells in nM, read-out: Cytotoxicity data A2890cisR), 3.1 nM; with A375 (Homo sapiens, A-375, Table 4, cells in nM, read-out: Cytotoxicity data A375) it was 10 nM; in the data set on PC9 (Homo sapiens, PC-9, Table 4, cells in nM, read-out: Cytotoxicity data PC9) it was 4.5 nM.
In the case of `CC(=O)OC1C(=O)C2(C)C(O)CC3OCC3(OC(C)=O)C2C(OC(=O)c2ccccc2)C2(O)CC(OC(=O)C(OC(=O)[O][Pt]([NH2])([NH2])([OH])([Cl])[Cl])C(NC(=O)c3ccccc3)c3ccccc3)C(C)=C1C2(C)C` (stereo not shown) [ctc-[Pt(NH3)2(Tax-Carb)(OH)Cl2]], the half-life at 3.3 mM in “physchem” was found to be 25 min.

In general, half-life refers to the time in which the quantity being followed falls by half. Higher therefore signals slow decline.
